Assay results: EP3431490B1, “CHEMICAL COMPOUNDS FOR USE AS DIAGNOSTIC MARKERS OF INFLAMMATION AND NEOPLAMS, THE METHOD FOR SYNTHESIS OF THE CHEMICAL COMPOUNDS, DIAGNOSTIC KIT FOR USE IN DIAGNOSIS OF INFLAMMATORY PROCESSES AND EPITHELIAL NEOPLASMS AND IN VITRO DIAGNOSTIC METHOD OF INFLAMMATORY PROCESSES AND EPITHELIAL NEOPLASMS” (Uniwersytet Gdanski, priority 2017, dated 2019)

Test system: proteolytic enzymes in combined urine samples of patients (urothelial epithelial neoplasms)
Experiment: Effect of protease inhibitors on hydrolysis of ABZ-Leu-Glu-Pro-Val-ANB-NH2 in combined urine samples of patients
Type: biochemical, human
Settings: inhibitor concentrations as in Table 1; fig. 3
Description: Proteolytic activity is dependent on the presence of specific compounds called inhibitors (proteolytic enzymes). Their incubation with a given biological material allows us to pre-determine the class of enzymes present in the tested samples. For this purpose, we have added effective inhibitory concentrations of certain classes of proteolytic enzymes to the combined urine samples of the ill persons - patients (urothelial epithelial neoplasms, in particular tumor).

inhibition of hydrolysis of ABZ-Leu-Glu-Pro-Val-ANB-NH2: complete inhibition of hydrolysis
Substance: AHX-VYDnV^P(C4H2Cl)2
